ChEMBL document CHEMBL1201862, “PubChem BioAssay data set” (2004)
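Cells were grown in 96-well plates and exposed to each compound for 48 hours at five concentrations; endpoints were interpolated linearly between bracketing concentrations, or set to the highest concentration if not reached. GI50 = concentration required for 50% inhibition of growth.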 Calls of active or inactive are those of the source. Cut-off read from the data, not from the text of the source: active = GI50 up to about 1.1 µM and inactive = higher.

Columns and labels:
Test in all cases: NCI tumour cell line growth inhibition, 48 h
786-0 = tested on: 786-0
A549 = tested on: A549
ACHN = tested on: ACHN
BT-549 = tested on: BT-549
CAKI-1 = tested on: CAKI-1
CCRF-CEM = tested on: CCRF-CEM
COLO 205 = tested on: COLO 205
DU-145 = tested on: DU-145
EKVX = tested on: EKVX
HCC 2998 = tested on: HCC 2998
HCT-116 = tested on: HCT-116
HCT-15 = tested on: HCT-15
HOP-62 = tested on: HOP-62
HT-29 = tested on: HT-29
Hs-578T = tested on: Hs-578T
IGROV-1 = tested on: IGROV-1
K562 = tested on: K562
KM12 = tested on: KM12
MDA-MB-231 = tested on: MDA-MB-231
MOLT-4 = tested on: MOLT-4
Malme-3M = tested on: Malme-3M
NCI-H226 = tested on: NCI-H226
NCI-H23 = tested on: NCI-H23
NCI-H460 = tested on: NCI-H460
NCI-H522 = tested on: NCI-H522
NCI/ADR-RES = tested on: NCI/ADR-RES
OVCAR-3 = tested on: OVCAR-3
OVCAR-5 = tested on: OVCAR-5
OVCAR-8 = tested on: OVCAR-8
RXF 393 = tested on: RXF 393
SF-268 = tested on: SF-268
SF-539 = tested on: SF-539
SK-MEL-28 = tested on: SK-MEL-28
SK-MEL-5 = tested on: SK-MEL-5
SNB-75 = tested on: SNB-75
SW-620 = tested on: SW-620
T47D = tested on: T47D
UO-31 = tested on: UO-31
A498 = tested on: A498
HOP-92 = tested on: HOP-92
LOX IMVI = tested on: LOX IMVI
M14 = tested on: M14
MDA-MB-435 = tested on: MDA-MB-435
OVCAR-4 = tested on: OVCAR-4
PC-3 = tested on: PC-3
RPMI-8226 = tested on: RPMI-8226
SK-MEL-2 = tested on: SK-MEL-2
SK-OV-3 = tested on: SK-OV-3
SN12C = tested on: SN12C
SNB-19 = tested on: SNB-19
TK-10 = tested on: TK-10
U-251 = tested on: U-251
UACC-257 = tested on: UACC-257
UACC-62 = tested on: UACC-62
HL-60 = tested on: HL-60
MCF7 = tested on: MCF7
MDA-N = tested on: MDA-N
SF-295 = tested on: SF-295
SR = tested on: SR

SMILES: CC(C)(C)c1ccc(O)c(C(O)c2ccncc2)c1 (configuration not stated)
- GI50 (786-0): > 100 µM (inactive)
- GI50 (A549): 83.2 µM (inactive)
- GI50 (ACHN): 52.4 µM (inactive)
- GI50 (BT-549): > 100 µM (inactive)
- GI50 (CAKI-1): > 100 µM (inactive)
- GI50 (CCRF-CEM): > 100 µM (inactive)
- GI50 (COLO 205): > 100 µM (inactive)
- GI50 (DU-145): > 100 µM (inactive)
- GI50 (EKVX): 44.6 µM (inactive)
- GI50 (HCC 2998): 39.7 µM (inactive)
- GI50 (HCT-116): > 100 µM (inactive)
- GI50 (HCT-15): 52.4 µM
- GI50 (HOP-62): > 100 µM (inactive)
- GI50 (HT-29): > 100 µM (inactive)
- GI50 (Hs-578T): 37.7 µM (inactive)
- GI50 (IGROV-1): > 100 µM (inactive)
- GI50 (K562): 61.4 µM (inactive)
- GI50 (KM12): > 100 µM (inactive)
- GI50 (MDA-MB-231): 62.8 µM (inactive)
- GI50 (MOLT-4): 76.4 µM (inactive)
- GI50 (Malme-3M): 62.7 µM (inactive)
- GI50 (NCI-H226): 72.1 µM (inactive)
- GI50 (NCI-H23): 70.8 µM (inactive)
- GI50 (NCI-H460): > 100 µM (inactive)
- GI50 (NCI-H522): > 100 µM (inactive)
- GI50 (NCI/ADR-RES): 53 µM (inactive)
- GI50 (OVCAR-3): > 100 µM (inactive)
- GI50 (OVCAR-5): 70.8 µM (inactive)
- GI50 (OVCAR-8): > 100 µM (inactive)
- GI50 (RXF 393): 45.4 µM (inactive)
- GI50 (SF-268): > 100 µM (inactive)
- GI50 (SF-539): > 100 µM (inactive)
- GI50 (SK-MEL-28): > 100 µM (inactive)
- GI50 (SK-MEL-5): 24.1 µM (inactive)
- GI50 (SNB-75): 68.7 µM (inactive)
- GI50 (SW-620): > 100 µM (inactive)
- GI50 (T47D): 16.9 µM (inactive)
- GI50 (UO-31): > 100 µM (inactive)

SMILES: Cc1cc(C)c2c(c1)CC1(Cc3ccc(C)c(C)c3C1=O)C2=O (configuration not stated)
- GI50 (786-0): > 100 µM (inactive)
- GI50 (A498): > 100 µM (inactive)
- GI50 (A549): > 100 µM (inactive)
- GI50 (BT-549): > 100 µM (inactive)
- GI50 (CAKI-1): > 100 µM (inactive)
- GI50 (DU-145): > 100 µM (inactive)
- GI50 (HCC 2998): > 100 µM (inactive)
- GI50 (HOP-92): > 100 µM (inactive)
- GI50 (Hs-578T): 11.4 µM (inactive)
- GI50 (LOX IMVI): > 100 µM (inactive)
- GI50 (M14): > 100 µM (inactive)
- GI50 (MDA-MB-231): 6.24 µM (inactive)
- GI50 (MDA-MB-435): 2.24 µM (inactive)
- GI50 (Malme-3M): 3.56 µM (inactive)
- GI50 (NCI-H23): > 100 µM (inactive)
- GI50 (NCI-H460): > 100 µM (inactive)
- GI50 (NCI-H522): > 100 µM (inactive)
- GI50 (OVCAR-3): > 100 µM (inactive)
- GI50 (OVCAR-4): 45.9 µM (inactive)
- GI50 (OVCAR-5): > 100 µM (inactive)
- GI50 (OVCAR-8): > 100 µM (inactive)
- GI50 (PC-3): 56.2 µM (inactive)
- GI50 (RPMI-8226): > 100 µM (inactive)
- GI50 (RXF 393): 15.8 µM (inactive)
- GI50 (SF-268): > 100 µM (inactive)
- GI50 (SF-539): > 100 µM (inactive)
- GI50 (SK-MEL-28): > 100 µM (inactive)
- GI50 (SK-MEL-2): > 100 µM (inactive)
- GI50 (SK-MEL-5): > 100 µM (inactive)
- GI50 (SK-OV-3): > 100 µM (inactive)
- GI50 (SN12C): > 100 µM (inactive)
- GI50 (SNB-19): > 100 µM (inactive)
- GI50 (SNB-75): > 100 µM (inactive)
- GI50 (T47D): > 100 µM (inactive)
- GI50 (TK-10): 49.8 µM (inactive)
- GI50 (U-251): 45.2 µM (inactive)
- GI50 (UACC-257): > 100 µM (inactive)
- GI50 (UACC-62): > 100 µM (inactive)
- GI50 (UO-31): > 100 µM (inactive)

SMILES: COc1cccc2c1-c1c(OC)cccc1SS2
- GI50 (786-0): 18.2 µM (inactive)
- GI50 (A498): 8.75 µM (inactive)
- GI50 (A549): 14.4 µM (inactive)
- GI50 (ACHN): 41.8 µM (inactive)
- GI50 (BT-549): 27.6 µM (inactive)
- GI50 (CAKI-1): 25.2 µM (inactive)
- GI50 (COLO 205): 20 µM (inactive)
- GI50 (DU-145): 28.9 µM (inactive)
- GI50 (EKVX): 13.1 µM (inactive)
- GI50 (HCC 2998): 20.9 µM (inactive)
- GI50 (HCT-116): 18.2 µM (inactive)
- GI50 (HCT-15): 13.4 µM
- GI50 (HL-60): 1.01 µM (active)
- GI50 (HOP-62): 47.2 µM (inactive)
- GI50 (HOP-92): 19.9 µM (inactive)
- GI50 (HT-29): 17.3 µM (inactive)
- GI50 (Hs-578T): 26.1 µM (inactive)
- GI50 (IGROV-1): 17.4 µM (inactive)
- GI50 (K562): 27.5 µM (inactive)
- GI50 (KM12): 34 µM (inactive)
- GI50 (LOX IMVI): 10.7 µM (inactive)
- GI50 (M14): 27 µM (inactive)
- GI50 (MCF7): 20.3 µM (inactive)
- GI50 (MDA-MB-231): 23.7 µM (inactive)
- GI50 (MDA-MB-435): 3.73 µM (inactive)
- GI50 (MDA-N): 2.67 µM (inactive)
- GI50 (MOLT-4): 13.4 µM (inactive)
- GI50 (Malme-3M): 18.1 µM (inactive)
- GI50 (NCI-H226): 16 µM (inactive)
- GI50 (NCI-H23): 18.6 µM (inactive)
- GI50 (NCI-H460): 18.2 µM (inactive)
- GI50 (NCI-H522): 19.7 µM (inactive)
- GI50 (NCI/ADR-RES): 36.6 µM (inactive)
- GI50 (OVCAR-3): 16.3 µM (inactive)
- GI50 (OVCAR-4): 21.8 µM (inactive)
- GI50 (OVCAR-5): 17.8 µM (inactive)
- GI50 (OVCAR-8): 25.9 µM (inactive)
- GI50 (PC-3): 32.5 µM (inactive)
- GI50 (RPMI-8226): 11.4 µM (inactive)
- GI50 (RXF 393): 17.5 µM (inactive)
- GI50 (SF-268): 22.6 µM (inactive)
- GI50 (SF-295): 19.9 µM (inactive)
- GI50 (SF-539): 17.7 µM (inactive)
- GI50 (SK-MEL-28): 16.8 µM (inactive)
- GI50 (SK-MEL-2): 17.5 µM (inactive)
- GI50 (SK-MEL-5): 13.6 µM (inactive)
- GI50 (SN12C): 13.8 µM (inactive)
- GI50 (SNB-19): 24.8 µM (inactive)
- GI50 (SR): 16.9 µM (inactive)
- GI50 (SW-620): 20.4 µM (inactive)
- GI50 (TK-10): 21.9 µM (inactive)
- GI50 (U-251): 15.7 µM (inactive)
- GI50 (UACC-257): 11.6 µM (inactive)
- GI50 (UACC-62): 20.1 µM (inactive)
- GI50 (UO-31): 22.8 µM (inactive)
